Positions of bridges follow the written chain, without caps; N, C: chain ends. Non-standard residues stand in square brackets, D forms with d. Residues, ends and D or L forms follow the SMILES beside them. Phe(3,4-(OMe)2) = COc1ccc(C[C@H](N)C(=O)O)cc1OC; Phe(3,4-Cl2) = N[C@@H](Cc1ccc(Cl)c(Cl)c1)C(=O)O; Bpa = N[C@@H](Cc1ccc(C(=O)c2ccccc2)cc1)C(=O)O; Chg = N[C@H](C(=O)O)C1CCCCC1
Tests used:
Test in all cases: cell-based
hNav1.7 = hNav1.7 (Homo sapiens, UniProt Q15858); assay type: cell-based; details: IonWorks Quattro, use-dependent protocol, hNav1.7; read-out: IWQ Use Nav1.7
hNav1.5 = hNav1.5 (Homo sapiens, UniProt Q14524); details: IonWorks Quattro, use-dependent protocol, hNav1.5; read-out: IWQ Use Nav1.5
Chain of hNav1.5 (Q14524 whole entry, looked up): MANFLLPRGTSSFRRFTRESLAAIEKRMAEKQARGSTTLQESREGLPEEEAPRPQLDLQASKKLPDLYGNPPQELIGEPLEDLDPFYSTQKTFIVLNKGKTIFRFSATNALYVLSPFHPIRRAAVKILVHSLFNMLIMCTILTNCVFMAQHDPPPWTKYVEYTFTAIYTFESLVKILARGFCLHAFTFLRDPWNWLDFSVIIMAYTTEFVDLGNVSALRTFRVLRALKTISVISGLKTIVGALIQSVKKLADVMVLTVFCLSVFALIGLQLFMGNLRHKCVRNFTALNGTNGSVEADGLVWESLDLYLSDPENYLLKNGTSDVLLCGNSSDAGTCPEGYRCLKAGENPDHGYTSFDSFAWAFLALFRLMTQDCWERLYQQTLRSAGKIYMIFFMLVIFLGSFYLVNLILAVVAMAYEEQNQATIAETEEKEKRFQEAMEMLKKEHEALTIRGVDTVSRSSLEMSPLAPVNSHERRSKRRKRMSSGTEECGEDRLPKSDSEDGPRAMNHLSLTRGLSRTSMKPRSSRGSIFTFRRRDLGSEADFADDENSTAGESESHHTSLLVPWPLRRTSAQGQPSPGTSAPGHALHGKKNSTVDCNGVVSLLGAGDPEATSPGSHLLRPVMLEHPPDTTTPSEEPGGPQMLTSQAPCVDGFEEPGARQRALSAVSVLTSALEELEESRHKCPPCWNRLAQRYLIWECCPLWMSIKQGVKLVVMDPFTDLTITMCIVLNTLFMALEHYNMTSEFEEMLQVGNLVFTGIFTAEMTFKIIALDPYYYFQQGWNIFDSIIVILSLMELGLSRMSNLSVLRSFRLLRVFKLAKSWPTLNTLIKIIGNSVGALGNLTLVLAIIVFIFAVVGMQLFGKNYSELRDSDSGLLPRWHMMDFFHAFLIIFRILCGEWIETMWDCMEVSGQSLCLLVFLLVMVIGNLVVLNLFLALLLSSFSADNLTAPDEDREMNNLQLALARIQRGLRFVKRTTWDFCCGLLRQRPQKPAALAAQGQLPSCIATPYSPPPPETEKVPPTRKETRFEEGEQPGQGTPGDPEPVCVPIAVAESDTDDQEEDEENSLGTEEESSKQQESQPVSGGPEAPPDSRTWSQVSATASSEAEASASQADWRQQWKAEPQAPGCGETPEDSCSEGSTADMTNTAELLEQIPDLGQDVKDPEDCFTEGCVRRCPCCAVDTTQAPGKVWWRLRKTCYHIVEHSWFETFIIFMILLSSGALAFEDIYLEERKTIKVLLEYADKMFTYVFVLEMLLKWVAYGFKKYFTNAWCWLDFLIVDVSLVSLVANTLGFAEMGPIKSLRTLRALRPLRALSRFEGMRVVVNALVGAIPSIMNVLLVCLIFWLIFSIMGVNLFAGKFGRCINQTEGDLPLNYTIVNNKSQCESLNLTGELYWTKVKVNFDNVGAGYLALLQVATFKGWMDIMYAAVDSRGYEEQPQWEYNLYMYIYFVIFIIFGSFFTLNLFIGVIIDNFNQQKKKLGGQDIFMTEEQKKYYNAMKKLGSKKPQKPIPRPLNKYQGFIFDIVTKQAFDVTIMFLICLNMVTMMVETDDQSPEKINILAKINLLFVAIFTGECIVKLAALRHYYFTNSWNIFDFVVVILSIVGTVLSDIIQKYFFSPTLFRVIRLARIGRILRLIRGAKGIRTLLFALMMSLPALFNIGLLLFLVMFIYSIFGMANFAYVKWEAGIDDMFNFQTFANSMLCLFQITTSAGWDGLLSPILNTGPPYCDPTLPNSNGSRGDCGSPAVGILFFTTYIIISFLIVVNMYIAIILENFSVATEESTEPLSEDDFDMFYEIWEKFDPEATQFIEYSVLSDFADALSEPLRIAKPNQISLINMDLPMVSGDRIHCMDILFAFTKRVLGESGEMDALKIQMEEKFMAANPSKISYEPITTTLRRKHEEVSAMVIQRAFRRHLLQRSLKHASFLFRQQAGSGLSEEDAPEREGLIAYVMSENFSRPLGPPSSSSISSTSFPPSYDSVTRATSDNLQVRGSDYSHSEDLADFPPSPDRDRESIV

hNav1.3 = hNav1.3 (Homo sapiens, UniProt Q9NY46); details: IonWorks Quattro, use-dependent protocol, hNav1.3; read-out: IWQ Use Nav1.3
Chain of hNav1.3 (Q9NY46 whole entry, looked up): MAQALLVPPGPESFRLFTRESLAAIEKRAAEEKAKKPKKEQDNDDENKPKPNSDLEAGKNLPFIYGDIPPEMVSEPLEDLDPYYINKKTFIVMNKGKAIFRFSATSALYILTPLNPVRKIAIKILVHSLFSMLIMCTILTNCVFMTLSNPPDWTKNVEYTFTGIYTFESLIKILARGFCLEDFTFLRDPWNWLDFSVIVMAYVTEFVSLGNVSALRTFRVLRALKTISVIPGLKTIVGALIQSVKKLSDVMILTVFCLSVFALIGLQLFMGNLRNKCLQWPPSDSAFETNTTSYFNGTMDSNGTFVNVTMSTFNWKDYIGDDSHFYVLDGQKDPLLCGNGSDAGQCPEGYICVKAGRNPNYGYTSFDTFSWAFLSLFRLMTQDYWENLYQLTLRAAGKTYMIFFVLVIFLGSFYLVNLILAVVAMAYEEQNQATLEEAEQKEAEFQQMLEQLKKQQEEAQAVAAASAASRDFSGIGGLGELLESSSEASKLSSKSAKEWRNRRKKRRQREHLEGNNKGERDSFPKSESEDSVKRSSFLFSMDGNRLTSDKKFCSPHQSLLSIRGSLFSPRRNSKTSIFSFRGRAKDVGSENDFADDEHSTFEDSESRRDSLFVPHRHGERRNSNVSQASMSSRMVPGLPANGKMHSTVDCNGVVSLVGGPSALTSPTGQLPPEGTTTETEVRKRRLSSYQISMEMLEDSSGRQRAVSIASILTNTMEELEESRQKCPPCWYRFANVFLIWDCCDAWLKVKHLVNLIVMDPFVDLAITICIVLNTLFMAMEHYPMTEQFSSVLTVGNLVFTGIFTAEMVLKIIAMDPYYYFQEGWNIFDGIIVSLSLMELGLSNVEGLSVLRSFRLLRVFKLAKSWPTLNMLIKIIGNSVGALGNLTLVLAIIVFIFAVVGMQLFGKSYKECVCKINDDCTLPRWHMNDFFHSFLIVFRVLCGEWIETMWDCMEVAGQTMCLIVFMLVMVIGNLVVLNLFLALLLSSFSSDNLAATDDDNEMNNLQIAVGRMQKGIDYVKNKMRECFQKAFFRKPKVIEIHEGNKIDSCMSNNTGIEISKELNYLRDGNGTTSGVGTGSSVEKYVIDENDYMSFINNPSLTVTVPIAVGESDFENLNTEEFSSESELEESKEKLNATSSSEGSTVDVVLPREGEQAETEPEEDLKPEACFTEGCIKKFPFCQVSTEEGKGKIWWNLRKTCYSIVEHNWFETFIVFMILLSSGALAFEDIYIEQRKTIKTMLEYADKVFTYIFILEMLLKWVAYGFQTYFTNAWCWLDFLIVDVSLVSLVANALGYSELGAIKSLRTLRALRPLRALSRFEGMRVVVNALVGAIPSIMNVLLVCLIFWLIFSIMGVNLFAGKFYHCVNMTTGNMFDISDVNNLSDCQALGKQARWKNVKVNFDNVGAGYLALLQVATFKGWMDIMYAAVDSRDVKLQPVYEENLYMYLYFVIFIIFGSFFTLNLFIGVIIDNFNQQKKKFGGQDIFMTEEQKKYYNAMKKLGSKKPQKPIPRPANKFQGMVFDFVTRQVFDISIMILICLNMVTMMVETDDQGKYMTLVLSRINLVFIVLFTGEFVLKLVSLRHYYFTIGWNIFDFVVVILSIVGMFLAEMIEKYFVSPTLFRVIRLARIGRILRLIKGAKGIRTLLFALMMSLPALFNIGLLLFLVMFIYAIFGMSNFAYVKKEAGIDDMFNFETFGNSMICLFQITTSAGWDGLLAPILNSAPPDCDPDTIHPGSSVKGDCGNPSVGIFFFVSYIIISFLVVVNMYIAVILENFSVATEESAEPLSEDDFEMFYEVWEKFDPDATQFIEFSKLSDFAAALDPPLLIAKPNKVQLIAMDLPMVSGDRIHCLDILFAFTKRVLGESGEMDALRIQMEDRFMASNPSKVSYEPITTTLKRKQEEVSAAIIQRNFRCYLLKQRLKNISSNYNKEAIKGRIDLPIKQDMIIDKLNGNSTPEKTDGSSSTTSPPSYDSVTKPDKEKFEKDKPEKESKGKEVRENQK

Row | Compound | IC50 (hNav1.7) [nM] | IC50 (hNav1.5) [µM] | IC50 (hNav1.3) [nM]
1 | CC[C@H](C)[C@@H]1NC(=O)[C@@H]2CSSC[C@@H]3NC(=O)[C@H](C(C)C)NC(=O)[C@H](CC(C)C)NC(=O)[C@H](CC(N)=O)NC(=O)[C@@H]4CCCN4C(=O)[C@H](CCCNC(=N)N)NC(=O)[C@H](CSSC[C@H](NC(=O)[C@@H](N)CC(=O)O)C(=O)N[C@@H](CC(C)C)C(=O)NCC(=O)N[C@@H](C4CCCCC4)C(=O)N[C@@H](Cc4ccccc4)C(=O)N[C@@H](CCCNC(=N)N)C(=O)N[C@@H](CCCCN)C(=O)N2)NC(=O)[C@H](CSSC[C@@H](C(=O)N[C@@H](CCCCN)C(=O)N[C@@H](Cc2ccc(O)cc2)C(=O)N[C@H](C(=O)N[C@@H](Cc2ccccc2)C(N)=O)C(C)C)NC(=O)[C@H](Cc2c[nH]c4ccccc24)NC(=O)[C@H](CCCCN)NC(=O)[C@H](Cc2c[nH]cn2)NC(=O)[C@H]([C@@H](C)O)NC(=O)[C@H](CCCNC(=N)N)NC(=O)[C@H](CO)NC3=O)NC(=O)[C@H](CCCCN)NC(=O)[C@H](CC(=O)O)NC(=O)[C@H](CC(N)=O)NC(=O)[C@H](CC(=O)O)NC(=O)[C@@H]2CCCN2C1=O [compound 616] (H-DCLG[Chg]FRKCIPDNDKCCRPNLVCSRTHKWCKYVF-NH2; disulfide 2-17, 9-23, 16-30) | 23 | 6.9 | 75
2 | CC[C@H](C)[C@@H]1NC(=O)[C@@H]2CSSC[C@@H]3NC(=O)[C@H](C(C)C)NC(=O)[C@H](CC(C)C)NC(=O)[C@H](CC(N)=O)NC(=O)[C@@H]4CCCN4C(=O)[C@H](CCCNC(=N)N)NC(=O)[C@H](CSSC[C@H](NC(=O)[C@@H](N)CC(=O)O)C(=O)N[C@@H](CC(C)C)C(=O)NCC(=O)N[C@@H](CO)C(=O)N[C@@H](Cc4ccccc4)C(=O)N[C@@H](CCCNC(=N)N)C(=O)N[C@@H](CCCCN)C(=O)N2)NC(=O)[C@H](CSSC[C@@H](C(=O)N[C@@H](CCCCN)C(=O)N[C@@H](Cc2ccc(O)cc2)C(=O)N[C@H](C(=O)N[C@@H](Cc2ccccc2)C(N)=O)C(C)C)NC(=O)[C@H](Cc2c[nH]c4ccccc24)NC(=O)[C@H](CCCCN)NC(=O)[C@H](Cc2c[nH]cn2)NC(=O)[C@H]([C@@H](C)O)NC(=O)[C@H](CCCNC(=N)N)NC(=O)[C@H](CO)NC3=O)NC(=O)[C@H](CCCCN)NC(=O)[C@H](CC(=O)O)NC(=O)[C@H](CC(N)=O)NC(=O)[C@H](CC(=O)O)NC(=O)[C@@H]2CCCN2C1=O [compound 617] (H-DCLGSFRKCIPDNDKCCRPNLVCSRTHKWCKYVF-NH2; disulfide 2-17, 9-23, 16-30) | 760 | 11.9 | 1700
3 | CC[C@H](C)[C@@H]1NC(=O)[C@@H]2CSSC[C@@H]3NC(=O)[C@H](C(C)C)NC(=O)[C@H](CC(C)C)NC(=O)[C@H](CC(N)=O)NC(=O)[C@@H]4CCCN4C(=O)[C@H](CCCNC(=N)N)NC(=O)[C@H](CSSC[C@H](NC(=O)[C@@H](N)CC(=O)O)C(=O)N[C@@H](CC(C)C)C(=O)NCC(=O)N[C@@H](C(C)C)C(=O)N[C@@H](Cc4ccccc4)C(=O)N[C@@H](CCCNC(=N)N)C(=O)N[C@@H](CCCCN)C(=O)N2)NC(=O)[C@H](CSSC[C@@H](C(=O)N[C@@H](CCCCN)C(=O)N[C@@H](Cc2ccc(O)cc2)C(=O)N[C@H](C(=O)N[C@@H](Cc2ccccc2)C(N)=O)C(C)C)NC(=O)[C@H](Cc2c[nH]c4ccccc24)NC(=O)[C@H](CCCCN)NC(=O)[C@H](Cc2c[nH]cn2)NC(=O)[C@H]([C@@H](C)O)NC(=O)[C@H](CCCNC(=N)N)NC(=O)[C@H](CO)NC3=O)NC(=O)[C@H](CCCCN)NC(=O)[C@H](CC(=O)O)NC(=O)[C@H](CC(N)=O)NC(=O)[C@H](CC(=O)O)NC(=O)[C@@H]2CCCN2C1=O [compound 618] (H-DCLGVFRKCIPDNDKCCRPNLVCSRTHKWCKYVF-NH2; disulfide 2-17, 9-23, 16-30) | 120 | 9.4 | 99
4 | CC[C@H](C)[C@@H]1NC(=O)[C@@H]2CSSC[C@@H]3NC(=O)[C@H](C(C)C)NC(=O)[C@H](CC(C)C)NC(=O)[C@H](CC(N)=O)NC(=O)[C@@H]4CCCN4C(=O)[C@H](CCCNC(=N)N)NC(=O)[C@H](CSSC[C@H](NC(=O)[C@@H](N)CC(=O)O)C(=O)N[C@@H](CC(C)C)C(=O)NCC(=O)N[C@@H](Cc4ccc(C(=O)c5ccccc5)cc4)C(=O)N[C@@H](Cc4ccccc4)C(=O)N[C@@H](CCCNC(=N)N)C(=O)N[C@@H](CCCCN)C(=O)N2)NC(=O)[C@H](CSSC[C@@H](C(=O)N[C@@H](CCCCN)C(=O)N[C@@H](Cc2ccc(O)cc2)C(=O)N[C@H](C(=O)N[C@@H](Cc2ccccc2)C(N)=O)C(C)C)NC(=O)[C@H](Cc2c[nH]c4ccccc24)NC(=O)[C@H](CCCCN)NC(=O)[C@H](Cc2c[nH]cn2)NC(=O)[C@H]([C@@H](C)O)NC(=O)[C@H](CCCNC(=N)N)NC(=O)[C@H](CO)NC3=O)NC(=O)[C@H](CCCCN)NC(=O)[C@H](CC(=O)O)NC(=O)[C@H](CC(N)=O)NC(=O)[C@H](CC(=O)O)NC(=O)[C@@H]2CCCN2C1=O [compound 619] (H-DCLG[Bpa]FRKCIPDNDKCCRPNLVCSRTHKWCKYVF-NH2; disulfide 2-17, 9-23, 16-30) | 140 | 7.7 | 42
5 | CC[C@H](C)[C@@H]1NC(=O)[C@@H]2CSSC[C@@H]3NC(=O)[C@H](C(C)C)NC(=O)[C@H](CC(C)C)NC(=O)[C@H](CC(N)=O)NC(=O)[C@@H]4CCCN4C(=O)[C@H](CCCNC(=N)N)NC(=O)[C@H](CSSC[C@H](NC(=O)[C@@H](N)CC(=O)O)C(=O)N[C@@H](CC(C)C)C(=O)NCC(=O)N[C@@H](Cc4ccc(OC)c(OC)c4)C(=O)N[C@@H](Cc4ccccc4)C(=O)N[C@@H](CCCNC(=N)N)C(=O)N[C@@H](CCCCN)C(=O)N2)NC(=O)[C@H](CSSC[C@@H](C(=O)N[C@@H](CCCCN)C(=O)N[C@@H](Cc2ccc(O)cc2)C(=O)N[C@H](C(=O)N[C@@H](Cc2ccccc2)C(N)=O)C(C)C)NC(=O)[C@H](Cc2c[nH]c4ccccc24)NC(=O)[C@H](CCCCN)NC(=O)[C@H](Cc2c[nH]cn2)NC(=O)[C@H]([C@@H](C)O)NC(=O)[C@H](CCCNC(=N)N)NC(=O)[C@H](CO)NC3=O)NC(=O)[C@H](CCCCN)NC(=O)[C@H](CC(=O)O)NC(=O)[C@H](CC(N)=O)NC(=O)[C@H](CC(=O)O)NC(=O)[C@@H]2CCCN2C1=O [compound 620] (H-DCLG[Phe(3,4-(OMe)2)]FRKCIPDNDKCCRPNLVCSRTHKWCKYVF-NH2; disulfide 2-17, 9-23, 16-30) | 640 | 10.4 | 990
6 | CC[C@H](C)[C@@H]1NC(=O)[C@@H]2CSSC[C@@H]3NC(=O)[C@H](C(C)C)NC(=O)[C@H](CC(C)C)NC(=O)[C@H](CC(N)=O)NC(=O)[C@@H]4CCCN4C(=O)[C@H](CCCNC(=N)N)NC(=O)[C@H](CSSC[C@H](NC(=O)[C@@H](N)CC(=O)O)C(=O)N[C@@H](CC(C)C)C(=O)NCC(=O)N[C@@H](Cc4ccc(Cl)c(Cl)c4)C(=O)N[C@@H](Cc4ccccc4)C(=O)N[C@@H](CCCNC(=N)N)C(=O)N[C@@H](CCCCN)C(=O)N2)NC(=O)[C@H](CSSC[C@@H](C(=O)N[C@@H](CCCCN)C(=O)N[C@@H](Cc2ccc(O)cc2)C(=O)N[C@H](C(=O)N[C@@H](Cc2ccccc2)C(N)=O)C(C)C)NC(=O)[C@H](Cc2c[nH]c4ccccc24)NC(=O)[C@H](CCCCN)NC(=O)[C@H](Cc2c[nH]cn2)NC(=O)[C@H]([C@@H](C)O)NC(=O)[C@H](CCCNC(=N)N)NC(=O)[C@H](CO)NC3=O)NC(=O)[C@H](CCCCN)NC(=O)[C@H](CC(=O)O)NC(=O)[C@H](CC(N)=O)NC(=O)[C@H](CC(=O)O)NC(=O)[C@@H]2CCCN2C1=O [compound 621] (H-DCLG[Phe(3,4-Cl2)]FRKCIPDNDKCCRPNLVCSRTHKWCKYVF-NH2; disulfide 2-17, 9-23, 16-30) | 48 | 4.1 | 5

— patent US9340590B2 (priority 2011, dated 2016)
